Experimental data from patent US11613533B2, “Compounds useful for inhibiting RET kinase” (Eli Lilly and Company, priority 2020, dated 2023).
pEC50, pIC50: −log10 of the molar value.

Experiments:
[1] = target: T1, V804M mutant RET kinase (N-terminal GST tagged recombinant human V804M mutant RET cytoplasmic domain, aa 658-end) (Homo sapiens, UniProt P07949, V804M); assay: RET enzyme assay (HTRF KinEASE TK), V804M; type: biochemical; details: 1 mM ATP, 40 min incubation at 22° C.
T1 construct: human V804M mutant RET cytoplasmic domain (aa 658-end); GST (N); purchased Millipore 14-760
T1 sequence (P07949 658-1114 V804M limits assumed): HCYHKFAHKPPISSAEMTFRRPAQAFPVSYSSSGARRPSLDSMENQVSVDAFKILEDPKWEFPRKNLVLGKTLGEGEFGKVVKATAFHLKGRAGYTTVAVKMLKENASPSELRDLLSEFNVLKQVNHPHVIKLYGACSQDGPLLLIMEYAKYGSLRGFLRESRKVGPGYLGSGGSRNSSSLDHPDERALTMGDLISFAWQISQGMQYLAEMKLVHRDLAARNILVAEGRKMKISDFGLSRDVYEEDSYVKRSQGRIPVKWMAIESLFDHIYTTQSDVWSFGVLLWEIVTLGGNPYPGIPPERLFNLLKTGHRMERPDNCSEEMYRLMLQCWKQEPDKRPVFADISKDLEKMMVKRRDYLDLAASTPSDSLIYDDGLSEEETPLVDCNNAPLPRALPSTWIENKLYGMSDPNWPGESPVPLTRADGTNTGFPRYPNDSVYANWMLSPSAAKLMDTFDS
Method: Assay A: RET Enzyme Assay
Compounds of formulas I, II, or III are screened for their ability to inhibit wildtype, V804M, and G810S mutant RET kinase using CisBio's HTRF® KinEASE™TK assay technology. N-terminal GST tagged recombinant human RET cytoplasmic domain (aa 658-end) from Eurofins ([…]; Catalog No. 14-570M) or N-terminal GST tagged recombinant human V804M mutant RET cytoplasmic domain (aa 658-end) from Millipore (1.25 nM enzyme; Catalog No. 14-760) or N-Terminal GST-tagged recombinant human G810S (aa-658-end) (1.25 nM Enzyme; produced in insect cells) is incubated with 62.5 nM TK-substrate biotin (CisBio, part of Catalog No. 62TK0PEC) and 1 mM ATP along with test compound (0.4% final DMSO in the assay) in a 1× Cisbio enzymatic buffer consisting of […], 5 mM MgCl2, 0.04% BSA and 0.05% Tween20 in a volume of 10 μL. Compounds are typically prepared in a threefold serial dilution in DMSO and added to the assay to give the appropriate final concentration. After a 40-60 min (40 min for V804M, 60 min for WT and G810S) incubation at 22° C., the reaction is quenched by adding quench solution (10 μL) containing 7.8 nM Streptavidine-XL665 and 0.5×TK-ab-Cryptate in HTRF detection buffer (all from CisBio, part of Cat. No. 62TK0PEC). After a 60-80 min incubation (60 minutes for WT, 80 minutes for V804M and G810S) at 22° C., the extent of reaction is determined using a PHERastar plate reader via HTRF detection at excitation/emission 337/665 nm. Percent of inhibition is calculated with 0% inhibition referring to control conditions containing no compound (0.4% DMSO only) and 100% inhibition represented by conditions containing no enzyme. The % inhibition values are fit to a 4 parameter logistic curve, and the determined IC50 value is defined as the estimated concentration of inhibitor at the inflexion point of the fitted curve.

[2] = target: T2, KIF5B-RET WT in HEK293 cells (Homo sapiens, UniProt P07949); assay: RET cell assay (In-Cell Western, phospho-RET Y1062), wildtype; type: cell-based; details: HEK293, doxycycline-induced KIF5B-RET WT, 1 hr compound treatment; read-out: EC50, inhibition of intracellular autophosphorylation of RET at tyrosine 1062, wildtype cells
T2 construct: expressed in transfected cells; host or cells: HEK293; the other entry of the earlier key: KIF5B (P33176, Kinesin-1 heavy chain)
T2 sequence (P07949 713-1063 limits assumed): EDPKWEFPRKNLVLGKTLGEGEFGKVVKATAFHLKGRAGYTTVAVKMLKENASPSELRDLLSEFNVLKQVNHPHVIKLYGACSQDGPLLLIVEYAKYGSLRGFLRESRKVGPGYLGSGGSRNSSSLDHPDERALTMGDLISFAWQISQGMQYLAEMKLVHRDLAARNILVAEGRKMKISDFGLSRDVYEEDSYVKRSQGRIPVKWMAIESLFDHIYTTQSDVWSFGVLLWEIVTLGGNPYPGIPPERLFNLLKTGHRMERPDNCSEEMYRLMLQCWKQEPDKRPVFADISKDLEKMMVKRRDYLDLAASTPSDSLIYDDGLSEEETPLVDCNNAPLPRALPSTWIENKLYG
Method: Compounds of formulas (I), (II), and (III) are screened for their ability to inhibit the intracellular autophosphorylation of RET at tyrosine 1062 as detected by In-Cell Western. HEK293 cells containing a doxycycline-inducible plasmid for inducible expression of KIF5B-RET WT and RET mutant forms V804M and G810S are seeded at 25,000 cells/well into black poly-D-lysine pre-coated 384-well plates (Corning, Catalog No. 356697). Expression of KIF5B-RET is induced with doxycycline at 1 μg/mL and cells are incubated at 37° C. overnight. Compounds are prepared in a threefold serial dilution in DMSO before further diluting 1:100 in media prior to the addition to the cells (0.1% final DMSO concentration). Compound treatment is performed for 1 hr at 37° C. followed by fixation of cells with 4% formaldehyde for 20 min at RT and cell permeabilisation with ice-cold MeOH for 10 min at RT. Cells are incubated with Intercept® blocking buffer (Li—COR, Catalogue No. 927-70010) for 1 hr at RT. Incubation with primary antibodies against human phospho-RET (Y1062) (R&D, Catalogue No. AF5009, 1/250 dilution) and human glyceraldehyde-3-phosphate dehydrogenase (clone 6C5, Merck, Catalog No. MAB374, 1/1000 dilution) are performed overnight at 4° C. Incubation with secondary antibodies IRDye® 800CW goat anti-rabbit IgG (Li—COR, Catalogue No. 926-32211, 1/1000 dilution) and IRDye® 680CW goat anti-mouse IgG (Li—COR, Catalogue No. 926-68070, 1/1000 dilution) are performed for 1 hr at RT. All antibody dilutions are done in Intercept® blocking buffer containing 0.05% Tween20. After washing cells with PBS-T (Cell Signaling technology, Catalogue No. 9809), the images are acquired on a Li—COR Odyssey LCx at 700 and 800 nm. Percent of DMSO control is calculated with 100% signal referring to control conditions containing no compound (0.4% DMSO only) and 0% signal represented by conditions containing control compound. The % of DMSO control values are fit to a 4 parameter logistic curve, and the determined EC50 value is defined as the estimated concentration of inhibitor at the inflexion point of the fitted curve.

pIC50 [1]	pEC50 [2]	Compound
> 7.00	> 7.00	CC(C(=O)Nc1cc(C2CC(C)(C)C2)no1)c1ccc(-c2nn(C(C)C)c(N)c2C(N)=O)cc1 (single isomer, unassigned; isomer 1) [Example 98, 5-Amino-3-[4-[2-[[3-(3,3-dimethylcyclobutyl)isoxazol-5-yl]amino]-1-methyl-2-oxo-ethyl]phenyl]-1-isopropyl-pyrazole-4-carboxamide, Isomer 1]
> 7.00	> 7.00	CC(C(=O)Nc1cc(C(C)(C)CC(F)(F)F)on1)c1ccc(-c2nn(C(C)C)c(N)c2C(N)=O)nc1 (single isomer, unassigned; isomer 2) [Example 68, 5-Amino-1-isopropyl-3-(5-(1-oxo-1-((5-(4,4,4-trifluoro-2-methylbutan-2-yl)isoxazol-3-yl)amino)propan-2-yl)pyridin-2-yl)-1H-pyrazole-4-carboxamide, Isomer 2]
> 7.00	> 7.00	CC(C(=O)Nc1cc(-c2ccc(Cl)cc2Cl)no1)c1ccc(-c2nn(C(C)C)c(N)c2C(N)=O)cn1 (single isomer, unassigned; isomer 2) [Example 94, 5-Amino-1-isopropyl-3-[6-[2-[[3-(2,4-dichlorophenyl)isoxazol-5-yl]amino]-1-methyl-2-oxo-ethyl]-3-pyridyl]pyrazole-4-carboxamide, Isomer 2]
> 7.00	> 7.00	CC(C(=O)Nc1cc(CC(C)(C)C)no1)c1ccc(-c2nn(C(C)C)c(N)c2C(N)=O)cc1 (single isomer, unassigned; isomer 1) [Example 1, 5-Amino-3-[4-(1-[[3-(2,2-dimethylpropyl)-1,2-oxazol-5-yl]carbamoyl]ethyl)phenyl]-1-isopropylpyrazole-4-carboxamide, Isomer 1]
